Measured values from the NIST ThermoML archive (doi:10.1007/s10765-013-1539-3).

Assay: wn = mass fraction of the nth substance listed
Conditions: Gas, Steady Flow

[C-]#[O+] [carbon monoxide] + [HH]
binary diffusion coefficient [m2/s], w2 = 0.5
Conditions	250 K	300 K	350 K	400 K	500 K	600 K	700 K	800 K	900 K
100 kPa	5.6e-05	7.7e-05	0.000101	0.000127	0.000188	0.000258	0.000337	0.000425	0.000522
4000 kPa	1.32e-05	1.96e-05	2.58e-05	3.28e-05	4.84e-05	6.6e-05	8.7e-05	0.000109	0.000134
7000 kPa	8e-06	1.16e-05	1.52e-05	1.96e-05	2.89e-05	3.97e-05	5.14e-05	6.5e-05	7.9e-05
10000 kPa	5.6e-06	8.1e-06	1.09e-05	1.38e-05	2.03e-05	2.79e-05	3.63e-05	4.55e-05	5.58e-05
15000 kPa	4e-06	5.6e-06	7.4e-06	9.4e-06	1.42e-05	1.96e-05	2.63e-05	3.35e-05	4.2e-05

[HH] [hydrogen] + C
binary diffusion coefficient [m2/s], w1 = 0.5
Conditions	250 K	280 K	320 K	400 K	480 K	560 K	640 K	720 K	800 K	900 K
100 kPa	5.3e-05	6.6e-05	8.3e-05	0.000124	0.000173	0.000227	0.00029	0.00036	0.000434	0.00054
4000 kPa	1.32e-05	1.84e-05	2.31e-05	3.62e-05	5.1e-05	6.7e-05	8.4e-05	0.000106	0.000129	0.000159
7000 kPa	6.3e-06	8.5e-06	1.17e-05	1.82e-05	2.52e-05	3.43e-05	4.35e-05	5.4e-05	6.5e-05	8.1e-05
10000 kPa	3.8e-06	5.4e-06	7.5e-06	1.2e-05	1.72e-05	2.3e-05	2.93e-05	3.61e-05	4.41e-05	5.42e-05
15000 kPa	2.91e-06	4.05e-06	5.8e-06	9.5e-06	1.36e-05	1.79e-05	2.28e-05	2.81e-05	3.37e-05	4.11e-05

[HH] [hydrogen] + CC
binary diffusion coefficient [m2/s], w1 = 0.5
Conditions	250 K	280 K	320 K	400 K	480 K	560 K	640 K	720 K	800 K	900 K
100 kPa	4.29e-05	5.2e-05	6.5e-05	9.5e-05	0.000131	0.00017	0.000212	0.000261	0.000313	0.000382
3500 kPa	–	–	1.46e-05	2.53e-05	3.6e-05	4.81e-05	6.2e-05	7.6e-05	9.1e-05	0.00011
7000 kPa	–	–	3.3e-06	1.15e-05	1.75e-05	2.4e-05	3.1e-05	3.81e-05	4.61e-05	5.59e-05
10500 kPa	–	–	2.4e-06	6.8e-06	1.13e-05	1.58e-05	2.04e-05	2.52e-05	3e-05	3.72e-05
14000 kPa	–	–	2.21e-06	5e-06	8.6e-06	1.2e-05	1.58e-05	1.94e-05	2.33e-05	2.83e-05

[HH] [hydrogen] + CCC
binary diffusion coefficient [m2/s], w1 = 0.5
Conditions	250 K	280 K	320 K	400 K	480 K	560 K	640 K	720 K	800 K	900 K
100 kPa	3.28e-05	4.01e-05	5e-05	7.4e-05	0.000101	0.000131	0.000164	0.0002	0.00024	0.000292
3500 kPa	–	–	–	1.6e-05	2.58e-05	3.56e-05	4.57e-05	5.63e-05	6.8e-05	8.3e-05
7000 kPa	–	–	–	4.5e-06	1.14e-05	1.7e-05	2.21e-05	2.78e-05	3.37e-05	4.24e-05
10500 kPa	–	–	–	2.98e-06	6.8e-06	1.07e-05	1.47e-05	1.83e-05	2.23e-05	2.83e-05
14000 kPa	–	–	–	2.72e-06	4.9e-06	7.89e-06	1.08e-05	1.37e-05	1.65e-05	2.04e-05

[HH] [hydrogen] + N#N
binary diffusion coefficient [m2/s], w1 = 0.5
Conditions	250 K	300 K	350 K	400 K	500 K	600 K	700 K	800 K	900 K
100 kPa	5.86e-05	8e-05	0.000104	0.000131	0.000192	0.000261	0.00034	0.000427	0.000523
4000 kPa	1.52e-05	2.04e-05	2.68e-05	3.37e-05	4.95e-05	6.8e-05	8.8e-05	0.00011	0.000134
7000 kPa	8.8e-06	1.24e-05	1.63e-05	2.05e-05	3.01e-05	4.1e-05	5.32e-05	6.65e-05	8.11e-05
10000 kPa	6e-06	8.5e-06	1.13e-05	1.41e-05	2.07e-05	2.82e-05	3.65e-05	4.56e-05	5.55e-05
15000 kPa	4.21e-06	6e-06	7.9e-06	9.8e-06	1.45e-05	1.96e-05	2.51e-05	3.15e-05	3.8e-05
